# Test results as given in patent US12173309B2, “Compounds for increasing genome editing efficiency” (Max-Planck-Gesellschaft zur Förderung der Wissenschaften …, priority 2017, dated 2024).
# “Also recorded” adds a separate entry of the source.
# Key:
# Experiment in all cases: PGE of HPRT with Cpf1 electroporation in non-pluripotent cells
# Format in all cases: cell-based, human
# K562 cells = conditions: 20 μM NU7026, 0.01 μM TSA, 0.5 μM MLN4924, 5 μM NSC 15520
# Experimental: (§1) Stem cell lines cultured for this project included human 409-B2 hiPSC ([…], Riken BioResource Center) and SC102A1 hiPSC ([…], BioCat GmbH), chimpanzee SandraA ciPSC (female, Mora-Bermúdez et al. 201637), as well as H9 hESC ([…], WiCell Research Institute, Ethics permit AZ 3.04.02/0118). Stem cell lines were grown on Matrigel Matrix (Corning, 35248), and mTeSR1 (StemCell Technologies, 05851) with mTeSR1 supplement (StemCell Technologies, 05852) was used as culture media. Non-pluripotent cell types and their respective media used were: HEK293 (ECACC, 85120602) with DMEM/F-12 (Gibco, 31330-038) supplemented with 10% FBS (SIGMA, F2442) and 1% NEAA (SIGMA, M7145); K562 (ECACC, 89121407) with IMDM (ThermoFisher, 12440053) supplemented with 10% FBS; CD4^+ T (HemaCare, PB04C-1) with RPMI 1640 (ThermoFisher, 11875-093) supplemented with 10% FBS, and activated with Dynabeads Human T-Activator (CD3/CD28) (ThermoFisher, 11131D); CD34^+ progenitor (HemaCare, M34C-1) with StemSpan SFEM (Stemcell, 09600) supplemented with StemSpan CC110 (StemCell, 02697); and HEKa (Gibco, C0055C) with Medium 154 (ThermoFisher, M154500) and Human Keratinocyte Growth Supplement (ThermoFisher, S0015). Cells were grown at 37° C. in a humidified incubator gassed with 5% CO2. Media was replaced every day for stem cells and every second day for non-pluripotent cell lines. Cell cultures were maintained 4-6 days until ˜80% confluency, and subcultured at a 1:6 to 1:10 dilution. Adherent cells were dissociated using EDTA (VWR, 437012C). The media was supplemented with 10 μM Rho-associated protein kinase (ROCK) inhibitor Y-27632 (Calbiochem, 688000) after cell splitting for one day in order to increase cell survival.
# (§2) The recombinant A.s. Cpf1 and S.p. Cas9 protein and electroporation enhancer was ordered from IDT (Coralville, USA) and nucleofection was done using the manufacturer's protocol, except for the following alterations. Nucleofection was done using the B-16 program (or U-14 for CD4^+ T cells) of the Nucleofector 2b Device (Lonza) in cuvettes for 100 μl Human Stem Cell nucleofection buffer (Lonza, VVPH-5022), or Human T Cell nucleofection buffer for CD4^+ T cells (Lonza, VPA-1002), and Human CD34 Cell nucleofection buffer for CD34^+ progenitor cells (Lonza, VPA-1003), containing 1 million cells of the respective lines, 78 pmol electroporation enhancer, 160 pmol of each gRNA (crRNA/tracR duplex for Cas9 and crRNA for Cpf1) (320 pmol for double nicking with both gRNAs for one gene), 200 pmol ssODN donor, 252 pmol CRISPR protein. For multiplexing, only gRNAs and single stranded DNA donors were electroporated, since a Cas9n expressing iCRISPR-Cas9n hiPSC line was used. Cells were counted using the Countess Automated Cell Counter (Invitrogen). […]
# HEK293 cells = conditions: 20 μM NU7026, 0.01 μM TSA, 0.5 μM MLN4924, 5 μM NSC 15520
# Experimental: as §1, §2
# CD4^+ T cells = conditions: primary cells
# Experimental: (§3) Cells were grown at 37° C. in a humidified incubator gassed with 5% CO2. Media was replaced every day for stem cells and every second day for non-pluripotent cell lines. Cell cultures were maintained 4-6 days until ˜80% confluency, and subcultured at a 1:6 to 1:10 dilution.
# (§4) The recombinant A.s. Cpf1 and S.p. Cas9 protein and electroporation enhancer was ordered from IDT (Coralville, USA) and nucleofection was done using the manufacturer's protocol, except for the following alterations. […] For multiplexing, only gRNAs and single stranded DNA donors were electroporated, since a Cas9n expressing iCRISPR-Cas9n hiPSC line was used. Cells were counted using the Countess Automated Cell Counter (Invitrogen).
# (§5) Three days after lipofection cells were dissociated using Accutase (SIGMA, A6964), pelleted, and resuspended in 15 μl QuickExtract (Epicentre, QE0905T). Incubation at 65° C. for 10 min, 68° C. for 5 min and finally 98° C. for 5 min was performed to yield ssDNA as a PCR template. Primers for each targeted loci of CALD1, KATNA1 and SLITRK1 containing adapters for Illumina sequencing were ordered from IDT (Coralville, USA). PCR was done in a T100 Thermal Cycler (Bio-Rad) using the KAPA2G Robust PCR Kit (Peqlab, 07-KK5532-03) with supplied buffer B and 3 μl of cell extract in a total volume of 25 μl. The thermal cycling profile of the PCR was: 95° C.
# CD34^+ progenitor cells = conditions: primary cells
# Experimental: as §3, §4, §5
SMILES,effect on PGE efficiency (K562 cells),effect on PGE efficiency (HEK293 cells),effect on PGE efficiency (CD4^+ T cells),effect on PGE efficiency (CD34^+ progenitor cells)
"NS(=O)(=O)OC[C@@H]1C[C@@H](n2ccc3c(N[C@H]4CCc5ccccc54)ncnc32)C[C@@H]1O [MLN4924, Pevonedistat]",clear disruptive effect,clear disruptive effect,disruptive effect,disruptive effect
O=c1cc(N2CCOCC2)oc2c1ccc1ccccc12 [NU7026],strongly increases; also recorded: increases,strongly increases; also recorded: increases,,
